Assay results: patent publication US20050277586A1, “Peptide chemically modified with polyethylene glycol” (priority 2002, published 2005)

Columns and labels:
[1] = test system: phosphatidyl serine (binding of human Factor VIII); experiment: Affinity for phosphatidyl serine (EIA, inhibition of human Factor VIII binding); settings: for IC50: in the presence of 5% BSA, human Factor VIII 1 μg/mL
Method: The specific affinity of the peptide for phosphatidyl serine was evaluated by measuring activity of the peptide for inhibiting the binding of the human Factor VIII to phosphatidyl serine by using human Factor VIII which is known to bind to phosphatidyl serine but not to phosphatidyl choline in the presence of serum albumin. To be more specific, 100 μL of ethanol solution containing 10 μg/mL of phospholipids at a phosphatidyl serine (manufactured by SIGMA): phosphatidyl choline (manufactured by SIGMA) ratio of 3:7 was added to the wells of a 96 well plate (Immulon I, manufactured by Dynatech), and exsiccated by using a centrifugal evaporator (EC-95C, manufactured by Sakuma Seisakusho) at 40° C. for 40 minutes. 200 μL each of TBS (10 mM Tris-HCl (pH 7.4) containing 1% bovine serum albumin (BSA Fraction V, hereinafter referred to as BSA, manufactured by Seikagaku Corporation) and 0.9% (W/V) NaCl solution were added to each well, and the wells were blocked by allowing the plate to stand at 37° C. for 2.5 hours. After washing the plate with water, 100 μL of TBS solution supplemented with 5% BSA mixed with human Factor VIII (manufactured by American Diagnostica) at a final concentration 1 μg/mL and the peptide of predetermined dose prepared in Example 1 was added to each well, and the reaction was allowed to take place at 4° C. for 24 hours.
After the completion of the reaction, the human Factor VIII that became bound to the phosphatidyl serine was measured by enzyme immunoassay (EIA) in accordance with the general procedure described in a book (“Enzyme Immunoassay (3rd ed.)”, Eiji Ishikawa et al., Igaku-Shoin, 1987). To be more specific, the measurement was conducted by using anti-human Factor VIII mouse monoclonal antibody (ESH8, manufactured by American Diagnostica) for the primary antibody, horseradish peroxidase-labeled anti-mouse IgG antibody (P0260, manufactured by Daco) for the secondary antibody, and tetramethylbenzidine for the chromogenic substrate, and measuring the absorption at a wavelength of 450 nm by using a reference wavelength of 630 nm on a spectrophotometer (NJ-2100, manufactured by Intermed).
Intensity of the affinity of the peptide for the phosphatidyl serine was evaluated by using the value obtained by subtracting the absorption of the well having no human Factor VIII added thereto from the absorption of the well having only the human Factor VIII added thereto as the control value (100%), and designating the peptide concentration at which the value 0.5 was obtained when the value obtained by subtracting the absorption of the well having only the peptide added thereto from the absorption of the well having a mixture of the human Factor VIII and the peptide added thereto were divided by the control value as the IC50 value, and evaluating the intensity to be ++ when the IC50 value was up to 1 μM, and + when the intensity was more than 1 μM but not more than 10 μM. It is to be noted that the specific affinity was evaluated to be none when the intensity was 10 μM or more.

[2] = Measurement of turbidity in BSA (absorbance at 600 nm); type: physicochemical; settings: 1% BSA, peptide 50 μM
Method: The solutions were evaluated for their absorbance at a wavelength of 600 nm by using a spectrophotometer (DU640, manufactured by Beckman).

[3] = test system: Vero cell, T24 cell, A549 cell; experiment: Nucleic acid-introducing ability, luciferase-expressing plasmid (procedure of Example 9); type: cell-based; settings: for Nucleic acid-introducing ability: luciferase plasmid 1 μg/mL, highest count of peptide 1.25, 2.5 or 5 μM, cell line not stated
From the text: A cell line established from monkey kidney (Vero cell) and a human bladder cancer cell (T24 cell) purchased from American Type Culture Collection (ATCC) and human lung cancer cell (A549 cell) purchased from Dainippon Pharmaceutical were inoculated on a 24 well culture plate (manufactured by NALGEN NUNC) at 1×10^5 cells/well. Vero cell and A549 cell were cultivated in DMEM (manufactured by Life Technologies Oriental) supplemented with 10% fetal bovine serum (hereinafter referred to as FBS, manufactured by NICHIREI), and T24 cell was cultivated in McCoy's 5a (manufactured by Life Technologies Oriental) supplemented with 10% FBS in 5% CO2 atmosphere at 37° C. for 24 hours. After removing the medium, opti-MEM (manufactured by Life Technologies Oriental) prepared to have the concentration of the luciferase-expressing plasmid prepared in Example 7 of 1 μg/mL and the concentration of the peptide prepared in Example 1 of 1.25, 2.5, or 5 μM was added, and the cells were cultivated for 5 hours. Next, in the case of Vero cell and A549 cell, the culture medium was replaced with DMEM supplemented with 10% FBS, and in the case of T24 cell, the medium was replaced with McCoy's 5a supplemented with 10% FBS, and cultivation was continued in 5% CO2 atmosphere and at 37° C. for another 24 hours. The luciferase activity expressed in the cell was then measured by the method instructed in luciferase assay system (manufactured by Promega). To be more specific, the cells were washed with phosphate-buffered saline (hereinafter referred to as PBS, manufactured by SIGMA), and the cells were lyzed with Passive Lysis Buffer attached to the kit.
20 μL of this cell lysate and 100 μL of the Luciferase Assay Reagent II attached to the kit was added to a fluorescence-measuring plate (Microlite™ 1 plate, manufactured by Dynatech), and after mixing, fluorescence was measured for 1 second by using a multilabel counter (ARVO™ SY1420 MULTILABEL COUNTER, manufactured by Wallac Beltold.
Concentration of the protein in the cell lysate was measured by mixing 8 μL of the cell lysate and 200 μL of the protein assay solution (manufactured by Biorad) with 792 μL of ultrapure water in a disposable cuvette (UV fluorescent cuvette A204X, manufactured by Funakoshi), allowing the mixture to stand for 5 minutes at room temperature, and measuring the absorption at 595 nm with a spectrophotometer (DU640, manufactured by Beckman). Bovine serum albumin (BSA) was used for the standard protein. By using the thus obtained results, count per 1 second per 1 mg of protein of the cell lysate was calculated to thereby use the count as the luciferase activity, and the highest count in the three conditions of different peptide concentration was designated the gene-introducing ability of the peptide.

Row | Substance | Affinity for phosphatidyl serine ([1]; procedure of Example 20) | OD 600 [2] | Nucleic acid-introducing ability [3] | Ability of introducing the nucleic acid into a cell ([3]; procedure of Example 9) | Fluorescent count per 1 mg of protein per 1 second ([3]; procedure of Example 9) | IC50 [1]
1 | Polylysine [reference compound] | no affinity for phosphatidyl serine | ≥ 1 |  |  |  | 
2 | SEQ ID NO: 9: SEQ ID NO: 1 with one or two locations in the 18 amino acid sequence substituted (TRYLRIHPRSWVHQIALRTRYLRIHPRSWVHQIALRS) |  |  | 3+ (1,000,000 to less than 10,000,000) |  |  | 
3 | SEQ ID NO: 12: SEQ ID NO: 1 with one or two locations in the 18 amino acid sequence substituted (TRYLRIHPRSWVHQIALSLRYLRIHPRSWVHQIALSS) |  |  | 2+ (100,000 to less than 1,000,000) |  |  | 
4 | SEQ ID NO: 13: SEQ ID NO: 1 with one or two locations in the 18 amino acid sequence substituted (TRYLRIHPRSLVHQIALRLRYLRIHPRSLVHQIALRS) |  |  | 3+ (1,000,000 to less than 10,000,000) |  |  | 
5 | SEQ ID NO: 14: SEQ ID NO: 1 with one or two locations in the 18 amino acid sequence substituted (TRYLRIHPRSWSHQIALRLRYLRIHPRSWSHQIALRS) |  |  | 3+ (1,000,000 to less than 10,000,000) |  |  | 
6 | SEQ ID NO: 18: SEQ ID NO: 1 with one or two locations in the 18 amino acid sequence substituted (TRYLRIHPRSWLHQIALRTRYLRIHPRSWLHQIALRS) |  |  | 4+ (10,000,000 to less than 100,000,000) |  |  | 
7 | SEQ ID NO: 20: SEQ ID NO: 1 with three locations in the 18 amino acid sequence substituted (TRYLRLHPRSWVHQLALRTRYLRLHPRSWVHQLALRS) |  |  | 4+ (10,000,000 to less than 100,000,000) |  |  | 
8 | SEQ ID NO: 21: SEQ ID NO: 1 with three locations in the 18 amino acid sequence substituted (TKYLKIHPKSWVHQIALRLKYLKIHPKSWVHQIALRS) |  |  | 2+ (100,000 to less than 1,000,000) |  |  | 
9 | SEQ ID NO: 22: SEQ ID NO: 1 with three locations in the 18 amino acid sequence substituted (TRRLRIHPRRWVHRIALRLRRLRIHPRRWVHRIALRS) |  |  | 3+ (1,000,000 to less than 10,000,000) |  |  | 
10 | SEQ ID NO: 24: deletion mutant of the peptide of SEQ ID NO: 4 (TLRYLRIHPRSWLHQIALRS) |  |  | 1+ (10,000 to less than 100,000) | had the ability of introducing the nucleic acid into a cell |  | 
11 | SEQ ID NO: 26: SEQ ID NO: 1 with amino acid substitution so that it lacks the four sided 18 amino acid sequence (TRYLRIHPRSWVLQIALRLRYLRIHPRSWVLQIALRS) [reference compound] |  |  |  | no nucleic acid-introducing ability was found | less than 10,000 cps/mg protein | 
12 | TIHPRSWVHQIALRLRYLRIHPRSWVHQIAS [SEQ ID NO: 23] |  | < 0.01 | 2+ (100,000 to less than 1,000,000) | had the ability of introducing the nucleic acid into a cell |  | < 1000 nM
13 | TRFLRIHPRSWVHQIALRLRFLRIHPRSWVHQIALRS [SEQ ID NO: 5] |  | < 0.01 | 2+ (100,000 to less than 1,000,000) |  |  | < 1000 nM
14 | TRSLRIHPRLWVHQIALRLRSLRIHPRLWVHQIALRS [SEQ ID NO: 17] |  | < 0.01 | 2+ (100,000 to less than 1,000,000) |  |  | < 1000 nM
15 | TRSLRIHPRSWVHQIALRLRSLRIHPRSWVHQIALRS [SEQ ID NO: 10] |  | < 0.01 | 3+ (1,000,000 to less than 10,000,000) |  |  | 1000 to 10000 nM
16 | TRYLRIHPKSWVHQIALRLRYLKIHPRSWVHQIALRS [SEQ ID NO: 8] |  | < 0.01 | 3+ (1,000,000 to less than 10,000,000) |  |  | 1000 to 10000 nM
17 | TRYLRIHPRLWVHQIALRLRYLRIHPRLWVHQIALRS [SEQ ID NO: 11] |  | < 0.01 | 3+ (1,000,000 to less than 10,000,000) |  |  | 1000 to 10000 nM
18 | TRYLRIHPRSWVHNIALRLRYLRIHPRSWVHNIALRS [SEQ ID NO: 6] |  | < 0.01 | 2+ (100,000 to less than 1,000,000) |  |  | < 1000 nM
19 | TRYLRIHPRSWVHQIALKLKYLRIHPRSWVHQIALRS [SEQ ID NO: 7] |  | < 0.01 | 2+ (100,000 to less than 1,000,000) |  |  | 1000 to 10000 nM
20 | TRYLRIHPRSWVHQIRLRLRYLRIHPRSWVHQIRLRS [SEQ ID NO: 3] |  | < 0.01 | 2+ (100,000 to less than 1,000,000) |  |  | < 1000 nM
21 | TRYLRIHPRSWVRQIALRLRYLRIHPRSWVRQIALRS [SEQ ID NO: 2] |  | < 0.01 | 3+ (1,000,000 to less than 10,000,000) |  |  | < 1000 nM
22 | TRYLRIRPRSWVRQIALRLRYLRIRPRSWVRQIALRS [SEQ ID NO: 15] |  | < 0.01 | 2+ (100,000 to less than 1,000,000) |  |  | < 1000 nM
23 | TRYLRLHPRSWLHQLALRLRYLRLHPRSWLHQLALRS [SEQ ID NO: 19] |  | < 0.01 | 4+ (10,000,000 to less than 100,000,000) |  |  | < 1000 nM
